What was measured:
[1] = tested on: human ventricular myocytes; design: method as in PMID 9709405; conditions: independent of the underlying pacing rate; cited from earlier work
[2] = tested on: human induced pluripotent stem cell-derived cardiomyocytes (hiPSC-CMs); test: Field potential recording of hiPSC-CM sheets on multi-electrode array (MEA); type: cell-based; conditions: for Effect on FPD: cumulative application; for Use (rate) dependence of FPD prolongation: from FPD-ISI plots
Description: The cells were thawed and suspended in iCell Cardiomyocytes Plating Medium (Cellular Dynamics International), then plated (approximately 2 × 10^6 cells/well) in 6-well tissue-culture plates coated with 0.1% gelatin. After two days of incubation at 37°C under an atmosphere of 5% CO2, the plating medium was replaced with iCell Cardiomyocytes Maintenance Medium (Cellular Dynamics International); this medium was used as the culture medium throughout the experiments and was replaced every 1 to 3 days. The cells were cultured for 7 to 14 days in a 5% CO2 incubator at 37°C and then re-plated onto MEA probes (MED-P515A or MED-PG515A; Alpha Med Scientific, Osaka, Japan).
The recording areas of the MEA probes were coated with fibronectin (Becton Dickinson, Franklin Lakes, NJ, USA; Invitrogen, Carlsbad, CA, USA; Corning, Corning, NY, USA). Fibronectin was dissolved in distilled water or Dulbecco's phosphate-buffered saline (PBS) [−] to give 50 μg/mL, the recording areas were covered with 2 μL fibronectin solution, and then the MEA probes were incubated at 37°C for at least 1 h. […] After discarding the fibronectin solution from the MEA probes without complete drying, the cell suspension at a density of 3.0 × 10^4 cells in a 2 μL droplet was re-plated onto the fibronectin-coated area of each MEA probe and incubated for 1 to 3 h in a 5% CO2 incubator at 37°C. Each well of the MEA probes was then filled with maintenance medium at a volume of 1 mL/well. The medium was replaced every 1 to 3 days thereafter, and the cells were cultured for 5 to 14 days to obtain high density cardiomyocyte-sheets with spontaneous and synchronous electrical activities.
Prior to recording FPs, the cardiomyocyte-sheets were equilibrated for at least 30 min in a 5% CO2 incubator at 37°C in fresh culture medium. The MEA probes were then transferred to a FP measurement apparatus (MED64 system; Alpha Med Scientific, Osaka, Japan) and covered with a lid through which humidified gas containing 5% CO2 was provided. […] Analogue FP signals from the spontaneously beating cardiomyocyte-sheets were acquired through a 0.1-Hz high-pass filter and a 5-kHz low-pass filter, and digitized at 20 kHz using the MED64 system. […] Compound stock solutions were prepared using DMSO at 1000-fold the target concentrations of the test compounds. The stock solutions were diluted with the maintenance medium to obtain the appropriate compound concentrations, then 1/10th to 1/50th the volume of the medium in the wells was exchanged with an equal volume of the compound-containing medium. The compounds were applied in a cumulative manner to the wells. The concentration of DMSO was 0.5–0.6% at the highest concentration of the test compounds. […] FPD (ms) and ISI (ms) were analyzed using Mobius QT software designed by WitWerx (Santa Cruz, CA, USA) (Fig 1b).
Baseline FP waveforms that met the following criteria were used for analysis. […] In the FP signals, EAD and TA were defined as slow negative spikes and a sharp deflection with an amplitude ≥ ± 100 μV, respectively (Fig 1c). EAD, TA or both usually appear during or after the second positive deflection. ISI, FPD and FPDcF were not calculated for concentrations in which EAD or TA were observed.
As previously mentioned, total 96 data equally from 4 facilities each were used for the analysis (24 data per facility). […] The root mean squared prediction error (RMSE) was used to show the level of accuracy of the equation predicted for the observed data (Fig 2). With categorical data analysis of FPD, inter-facilities differences were investigated with Kruskal-Wallis test (Fig 4).

[3] = tested on: guinea pig ventricular myocytes; design: method as in PMID 9709405; conditions: independent of the underlying pacing rate; cited from earlier work
[4] = tested on: dogs with subacute myocardial infarction; design: method as in PMID 11005588; conditions: cited from earlier work
[5] = cisapride 3 nM, all 4 facilities, n=24
[6] = cisapride 3 nM, facility A, n=6
[7] = cisapride 3 nM, facility B, n=6
[8] = cisapride 3 nM, facility C, n=6
[9] = cisapride 3 nM, facility D, n=6
[10] = cisapride 10 nM, all 4 facilities, n=24
[11] = cisapride 10 nM, all 4 facilities, n=24, listed as cisapride
[12] = cisapride 10 nM, facility A, n=6
[13] = cisapride 10 nM, facility B, n=6
[14] = cisapride 10 nM, facility C, n=6
[15] = cisapride 10 nM, facility D, n=6
[16] = cisapride 30 nM, all 4 facilities, n=24
[17] = cisapride 30 nM, facility A, n=6
[18] = cisapride 30 nM, facility B, n=6
[19] = cisapride 30 nM, facility C, n=6
[20] = cisapride 30 nM, facility D, n=6
[21] = cisapride 100 nM, all 4 facilities, n=24
[22] = cisapride 100 nM, facility D, n=6

CCS(=O)(=O)N(C)[C@H]1c2cc(C#N)ccc2OC(C)(C)[C@@H]1O (racemic) [Chromanol 293B]
Prolongation of APD90 [1]: about 30% | EADs and/or TAs ([2]; at concentrations up to 30 μM): not observed | Slope factor of FPD-ISI regression, % change ([2]; chromanol 293B 1 μM): 0.9162 | Slope factor of FPD-ISI regression, % change ([2]; chromanol 293B 30 μM): 0.9066 | Slope factor of FPD-ISI regression, absolute FPD (ms) ([2]; chromanol 293B 30 μM (sham 0.1674)): 0.4182 | Effect on FPD [2]: prolonged FPD in a concentration-dependent manner | Use (rate) dependence of FPD prolongation [2]: prolonged FPD in a rate-independent manner | Prolongation of APD90 [3]: about 30% | Effect on effective refractory periods [4]: prolonged effective refractory periods in a rate-dependent manner

COc1cc(N)c(Cl)cc1C(=O)NC1CCN(CCCOc2ccc(F)cc2)CC1OC (stereo not drawn) [Cisapride, cisapride]
Delta FPDcF ([2]; categorical analysis, Fridericia correction, S5 Table): increased in a concentration-dependent manner | Delta FPD ([2]; categorical analysis, S4 Table): increased in a concentration-dependent manner | Slope factor of FPD-ISI regression, % change ([2]; cisapride 3 nM): 0.6124 | Preparations in absolute FPD category > 450 ms [2, 5]: 21%(5/24) | Preparations in absolute FPD category > 480 ms [2, 5]: 13%(3/24) | Preparations in absolute FPD category > 500 ms [2, 5]: 17%(4/24) | Preparations in absolute FPD category ≤ 450 ms [2, 5]: 50%(12/24) | Preparations in absolute FPD category > 450 ms [2, 6]: 17%(1/6) | Preparations in absolute FPD category > 480 ms [2, 6]: 17%(1/6) | Preparations in absolute FPD category > 500 ms [2, 6]: 50% (3/6) | Preparations in absolute FPD category ≤ 450 ms [2, 6]: 17%(1/6) | Preparations in absolute FPD category > 450 ms [2, 7]: 17%(1/6) | Preparations in absolute FPD category > 480 ms [2, 7]: 17%(1/6) | Preparations in absolute FPD category > 500 ms [2, 7]: 0% (0/6) | Preparations in absolute FPD category ≤ 450 ms [2, 7]: 67%(4/6) | Preparations in absolute FPD category > 450 ms [2, 8]: 17%(1/6) | Preparations in absolute FPD category > 480 ms [2, 8]: 17%(1/6) | Preparations in absolute FPD category > 500 ms [2, 8]: 17%(1/6) | Preparations in absolute FPD category ≤ 450 ms [2, 8]: 50% (3/6) | Preparations in absolute FPD category > 450 ms [2, 9]: 33%(2/6) | Preparations in absolute FPD category > 480 ms [2, 9]: 0% (0/6) | Preparations in absolute FPD category > 500 ms [2, 9]: 0% (0/6) | Preparations in absolute FPD category ≤ 450 ms [2, 9]: 67%(4/6) | Preparations in absolute FPD category > 450 ms [2, 10]: 38%(9/24) | Preparations in absolute FPD category > 480 ms [2, 10]: 17%(4/24) | Preparations in absolute FPD category > 500 ms [2, 10]: 29%(7/24) | Preparations in absolute FPD category ≤ 450 ms [2, 10]: 17% (4/24) | Preparations in absolute FPD category > 500 ms [2, 11]: 29% | Preparations with EAD/TA [2, 11]: no EAD/TAs were observed | Preparations in absolute FPD category > 450 ms [2, 12]: 0% (0/6) | Preparations in absolute FPD category > 480 ms [2, 12]: 50% (3/6) | Preparations in absolute FPD category > 500 ms [2, 12]: 50% (3/6) | Preparations in absolute FPD category ≤ 450 ms [2, 12]: 0% (0/6) | Preparations in absolute FPD category > 450 ms [2, 13]: 33%(2/6) | Preparations in absolute FPD category > 480 ms [2, 13]: 0% (0/6) | Preparations in absolute FPD category > 500 ms [2, 13]: 17%(1/6) | Preparations in absolute FPD category ≤ 450 ms [2, 13]: 50% (3/6) | Preparations in absolute FPD category > 450 ms [2, 14]: 50% (3/6) | Preparations in absolute FPD category > 480 ms [2, 14]: 0% (0/6) | Preparations in absolute FPD category > 500 ms [2, 14]: 33%(2/6) | Preparations in absolute FPD category ≤ 450 ms [2, 14]: 17%(1/6) | Preparations in absolute FPD category > 450 ms [2, 15]: 67%(4/6) | Preparations in absolute FPD category > 480 ms [2, 15]: 17%(1/6) | Preparations in absolute FPD category > 500 ms [2, 15]: 17%(1/6) | Preparations in absolute FPD category ≤ 450 ms [2, 15]: 0% (0/6) | Slope factor of FPD-ISI regression, % change ([2]; cisapride 30 nM): 1.2274 | Slope factor of FPD-ISI regression, absolute FPD (ms) ([2]; cisapride 30 nM (sham 0.1204)): 0.1644 | Preparations in absolute FPD category > 450 ms [2, 16]: 4% (1/24) | Preparations in absolute FPD category > 480 ms [2, 16]: 13%(3/24) | Preparations in absolute FPD category > 500 ms [2, 16]: 71%(17/24) | Preparations in absolute FPD category ≤ 450 ms [2, 16]: 8% (2/24) | Preparations with EAD/TA [2, 16]: 4%(1/24) | Preparations in absolute FPD category > 500 ms ([2]; cisapride 30 nM, all 4 facilities, n=24, listed as cisapride): 71% | Number of preparations that showed EAD/TAs ([2]; cisapride 30 nM, all 4 facilities, of 24): 1 preparation | Preparations in absolute FPD category > 450 ms [2, 17]: 0% (0/6) | Preparations in absolute FPD category > 480 ms [2, 17]: 0% (0/6) | Preparations in absolute FPD category > 500 ms [2, 17]: 83%(5/6) | Preparations in absolute FPD category ≤ 450 ms [2, 17]: 0% (0/6) | Preparations with EAD/TA [2, 17]: 17%(1/6) | Preparations in absolute FPD category > 450 ms [2, 18]: 17%(1/6) | Preparations in absolute FPD category > 480 ms [2, 18]: 0% (0/6) | Preparations in absolute FPD category > 500 ms [2, 18]: 50% (3/6) | Preparations in absolute FPD category ≤ 450 ms [2, 18]: 33%(2/6) | Preparations in absolute FPD category > 450 ms [2, 19]: 0% (0/6) | Preparations in absolute FPD category > 480 ms [2, 19]: 33%(2/6) | Preparations in absolute FPD category > 500 ms [2, 19]: 67%(4/6) | Preparations in absolute FPD category ≤ 450 ms [2, 19]: 0% (0/6) | Preparations in absolute FPD category > 450 ms [2, 20]: 0% (0/6) | Preparations in absolute FPD category > 480 ms [2, 20]: 17%(1/6) | Preparations in absolute FPD category > 500 ms [2, 20]: 83%(5/6) | Preparations in absolute FPD category ≤ 450 ms [2, 20]: 0% (0/6) | Preparations in absolute FPD category > 450 ms [2, 21]: 0% (0/24) | Preparations in absolute FPD category > 480 ms [2, 21]: 0% (0/24) | Preparations in absolute FPD category > 500 ms [2, 21]: 8%(2/24) | Preparations in absolute FPD category ≤ 450 ms [2, 21]: 0% (0/24) | Preparations with EAD/TA [2, 21]: 92%(22/24) | Preparations with EAD/TA ([2]; cisapride 100 nM, all 4 facilities, n=24, listed as cisapride): 92% | Preparations with EAD/TA ([2]; cisapride 100 nM, facility A, n=6): 100%(6/6) | Preparations with EAD/TA ([2]; cisapride 100 nM, facility B, n=6): 100%(6/6) | Preparations with EAD/TA ([2]; cisapride 100 nM, facility C, n=6): 100%(6/6) | Preparations in absolute FPD category > 450 ms [2, 22]: 0% (0/6) | Preparations in absolute FPD category > 480 ms [2, 22]: 0% (0/6) | Preparations in absolute FPD category > 500 ms [2, 22]: 33%(2/6) | Preparations in absolute FPD category ≤ 450 ms [2, 22]: 0% (0/6) | Preparations with EAD/TA [2, 22]: 67%(4/6) | Preparations with EAD/TA ([2]; cisapride 300 nM, all 4 facilities, n=24): 100%(24/24) | Preparations with EAD/TA ([2]; cisapride 300 nM, facility D, n=6): 100%(6/6) | Effect on FPD [2]: prolonged FPD in a concentration-dependent manner | Use (rate) dependence of FPD prolongation [2]: induced FPD prolongation in a reverse use-dependent manner

Cc1cccc(CCN2CCC(C(=O)c3ccc(NS(C)(=O)=O)cc3)CC2)n1 [E-4031]
Slope factor of FPD-ISI regression, % change ([2]; E-4031 1 nM): 0.9347 | Slope factor of FPD-ISI regression, % change ([2]; E-4031 10 nM): 1.8977 | Slope factor of FPD-ISI regression, absolute FPD (ms) ([2]; E-4031 10 nM (sham 0.1653)): 0.3328 | Use (rate) dependence of FPD prolongation [2]: induced FPD prolongation in a reverse use-dependent manner

Reference: article PMC5140066, “Electrophysiological Characteristics of Human iPSC-Derived Cardiomyocytes for the Assessment of Drug-Induced Proarrhythmic Potential” (PLoS ONE, 2016)
